What is called Solubility is how much of the substance goes into solution per volume. The low end stands for little dissolved substance, the high end for much dissolved substance.

The nature of data set [1]: Solubility in distilled water without additives, compounds alone and mixed. The note with it: without any additives.
Data set [2] is described as follows: Solubility of MSLs in water. From the text: If the material precipitates upon cooling or was to some extent insoluble, the insoluble material was separated by filtration, dried and weighed.
The conditions of data set [3]: SL-esters; from earlier publication in Colloids and surfaces, 2004, 240, 75; cited from earlier work.
Data set [4] is described as follows: Crude oil clearing/displacement activity. The note with it: 20 μL of 1 mg/mL solution. As to the method:
Oil cleaning assays were performed using Louisiana Crude, Arabian Light Crude, and Prudhoe Bay Crude as the oil phase. In one study, the oil clearing/displacement activity of MSLs were assessed using a crude oil layer on top of sea water in order to simulate oil spill type conditions. Sea water (20 mL) was transferred to plastic Petri dishes and 20 μL of a crude oil type was added on top of the water to create an oil layer. Subsequently, a 20 μL aliquot of MSL solution (1 mg/mL) was added dropwise to the top of the oil layer. The instantaneous formation of an oil clearing zone as well as the diameter of the clearing zone was determined as a function of the dispersant used. […] Furthermore, the oil displacement activity of SL-ethyl ester and SL-butyl ester was slightly higher than Triton-X-100 for Arabian Light crude.

The nature of data set [5]: Emulsion type: dilution test and oil soluble dye staining. Type of data set: physicochemical. The note with it: 2%-by-weight relative to water phase, oil/water 5/5 and 7/3. As to the method: In this test the emulsion is diluted either with oil (O) or water (W). If the emulsion is O/W type and it is diluted with water, it will remain stable as water is the dispersion medium. However, if the emulsion is O/W type and it is diluted with oil, the emulsion will break as oil and water are not miscible with each other. […] Emulsions of the O/W type have separated layers after dilution with pure oil but form a homogenous phase when diluted by water. Unless otherwise specified, the emulsion type formed by MSLs were oil in water.
In FIG. 13B, the tube on the left was diluted with 1 mL of oil whereas the tube on right was diluted with water. Visual observation of the tubes in FIG. 13B supports that the emulsions formed are indeed O/W emulsions.
Oil Red O was applied as an oil soluble dye and emerald green as water soluble dye in the process of emulsion preparation. Observations of emulsions were made before and after staining under optical microscope at 400× magnification (FIG. 14). […] The formation of O/W emulsions and not W/O emulsions with this set of MSL compounds would not be obvious to one skilled in the art. We believe that O/W emulsions are formed by this set of MSLs due to that large sophorose polar head groups requires relatively more space than the lipid tails and, therefore self-assemble into spherical type structures where disaccharide groups are locating outside the droplets.

Data set [6] is described as follows: Crude oil emulsification activity (turbidity at 610 nm). The note with it: emulsifier 1 mg/mL. The method, then: Emulsification activity was assessed using Louisiana Crude, Arabian Light Crude, and Prudhoe Bay Crude as the oil phase. A 2 mL solution with emulsifier concentration of 1 mg/mL was prepared. A crude oil (10 mg) was added to the emulsifier aqueous solution, the mixture was vortexed for one minute and the emulsified mixture was allowed to stand for 20 minutes. Emulsification activity was determined by measuring turbidity of the emulsion mixture in a spectrophotometer at 610 nm. The results obtained using SL-ethyl ester, SL-butyl ester, the natural sophorolipid mixture and Triton X-100 as emulsifiers are expressed as D610 and are listed in Table 8. […] Furthermore, a remarkable improvement in emulsification activity was obtained for SL-butyl ester relative to the natural sophorolipid mixture. These comparative results for emulsification of Louisiana Crude, Arabian Light Crude, and Prudhoe Bay Crude oil phase could not be anticipated by one skilled in the art.

A short description of data set [7]: Emulsion stability based on phase separation. Type of data set: physicochemical. The note with it: paraffin oil/water 5/5, 2%-by-weight emulsifier, after 24 hours at 25° C. The method, then:
The emulsion was obtained by homogenizing the oil and water mixture and was allowed to settle at room temperature for 24 hours. […] Then, this mixture was homogenized at 13,000 rpm for 2 minutes. Thereafter, the resulting emulsion was left unagitated at 25° C. for 24 hours. Surfactants which give a larger emulsion phase are denoted as having higher emulsion effectiveness (Process Safety and Environment protection, 2005, 83, 38-46). […] Thus, unexpectedly, that longer alkyl chains, at least up to butyl and hexyl, provided improved interfacial stability at the paraffin oil/water interface. […] Apparently, ester bonds of SL-esters are less disruptive to organization at the oil water interface than amide bonds of SL-amides. […] The acidic SL (3) gave an 8% emulsion layer, much lower than the MSL examples given herein. Similarly, the natural SL (1) mixture gave a 10% emulsion layer. This performance is also far below that of SL-butyl amide (24), hexyl amide (25), butyl ester (8) and hexyl ester (16).
After homogenized at 13,000 rpm for 2 minutes, the emulsions were kept at room temperature and separation of the respective oil, emulsion and water layers was recorded for up to 1 month.

SMILES strings stand for the structures.

Regarding `CCOC(=O)CCCCCCCC=CCCCCCCC(C)OC1OC(CO)C(O)C(O)C1OC1OC(CO)C(O)C(O)C1O` (stereo not drawn) [Compound 7, SL-Ethyl Ester], the “solubility in distilled water” value in data set [1] is reported as “less than 1 mg/L”. The compound also had a Solubility in data set [2] of under 3000 µg/mL. In addition, in data set [3], the “CMC Range” value is reported as 36-40 10^−6M. In data set [3], the “MST (minimum surface tension)” value was 37.5 mN/m. The “Oil displacement activity (diameter of the clearing zone)” value in data set [4] (Arabian Light Crude on sea water) is given as 6.5 ± 0.2 cm; in data set [4] (Louisiana Crude on sea water) it was 6.3 ± 0.9 cm; in data set [4] (Prudhoe Bay Crude on sea water) it was 6.6 ± 0.7 cm. For the same compound, the “emulsion type by Oil Red O staining” value in data set [5] is recorded as “O/W”. For the same compound, the “Emulsification activity (D610)” value turned out to be 0.91 in data set [6] (Arabian Crude), 0.42 in data set [6] (Louisiana Crude) and 0.32 in data set [6] (Prudhoe Crude). Also, the emulsion layer percentage entry in data set [7] is listed as “no emulsion layer was observed”.

Values taken from patent US9650405B2, “Modified sophorolipids as oil solubilizing agents” (Polytechnic Institute of New York University, priority 2010, dated 2017).
